The SangsterLogP compilation

Experiment: method code SF, from DOI: 10.1021/jf00121a034

SMILES | logP
CON(C)C(=O)Nc1ccc(OCC(=O)C23CC4CC(CC(C4)C2)C3)cc1 | 3.53
CON(C)C(=O)Nc1ccc(OCCCCOc2ccccc2)cc1 | 3.86
CC(=O)c1cccc(NC(=O)N(C)C)c1 | 0.95
CON(C)C(=O)Nc1cccc(OCC(=O)C23CC4CC(CC(C4)C2)C3)c1 | 3.79
CCCCCCCCCCCCOc1ccc(NC(=O)N(C)C)cc1 | 6.93
CC(C)c1ccc(NC(=O)N(C)C)cc1 | 2.87
CN(C)C(=O)Nc1cccc(O)c1 | 0.51
CON(C)C(=O)Nc1ccc(OCCC2CCCCC2)cc1 | 4.46
CON(C)C(=O)Nc1cccc(OCCCCOc2ccccc2)c1 | 3.86
CON(C)C(=O)Nc1ccc(CCCc2ccc(Cl)cc2)cc1 | 5.35
CON(C)C(=O)Nc1ccc(CCCc2ccc(-c3ccccc3)cc2)cc1 | 6.54
CON(C)C(=O)Nc1ccc(OCCc2cccc3ccccc23)cc1 | 4.81
CON(C)C(=O)Nc1ccc(OCCc2ccc(C)cc2)cc1 | 3.81
CON(C)C(=O)Nc1ccc(OCC(=O)C23CC4CC(C2)C4C3)c(Cl)c1 (configuration not stated) | 4.48
CN(C)C(=O)Nc1ccc(C(=O)c2ccccc2)cc1 | 2.59
CN(C)C(=O)Nc1cccc([N+](=O)[O-])c1 | 1.46
CN(C)C(=O)Nc1ccc(C2CCCCC2)cc1 | 3.83
CCCCc1cccc(NC(=O)N(C)C)c1 | 3.23
CON(C)C(=O)Nc1ccc(CCCCc2ccccc2)cc1 | 5.15
CN(C)C(=O)Nc1cccc(OCCc2ccccc2)c1 | 3.39
CN(C)C(=O)Nc1cccc(N)c1 | -0.1

Now from value to compound:

logP | SMILES
2.95 | CON(C)C(=O)Nc1ccc(C(C)C)cc1
4.08 | CON(C)C(=O)Nc1ccc(C2CCCCC2)cc1
0.62 | CON(C)C(=O)Nc1cccc(CO)c1
1.29 | CON(C)C(=O)Nc1ccccc1
0.14 | CON(C)C(=O)Nc1ccc(NS(C)(=O)=O)cc1
1.64 | CON(C)C(=O)Nc1cccc([N+](=O)[O-])c1
3.21 | CON(C)C(=O)Nc1cccc(C(C)(C)C)c1
1.46 | CON(C)C(=O)Nc1ccc(F)cc1
0.83 | CCNc1ccc(NC(=O)N(C)OC)cc1
1.68 | CON(C)C(=O)Nc1cccc(F)c1
1.22 | CON(C)C(=O)Nc1ccc(C(C)=O)cc1
2.24 | CCOC(=O)c1ccc(NC(=O)N(C)OC)cc1
0.82 | CON(C)C(=O)Nc1cccc(O)c1
2.86 | CON(C)C(=O)Nc1ccc(C(=O)c2ccccc2)cc1
4.67 | CON(C)C(=O)Nc1ccc(CCCc2ccccc2)cc1
1.74 | CON(C)C(=O)Nc1ccc([N+](=O)[O-])cc1
2.64 | CON(C)C(=O)Nc1cccc(C(F)(F)F)c1
2.19 | CON(C)C(=O)Nc1ccc(C=C(C#N)C#N)cc1
4.51 | CON(C)C(=O)Nc1ccc(OC(C)CC2CCCCC2)cc1 (configuration not stated)
3.11 | CON(C)C(=O)Nc1ccc(OCc2ccccc2)cc1
-0.16 | CON(C)C(=O)Nc1ccc(N)cc1
